Counter-ions that a name gives are not always drawn.
What was measured:
[1] = target: casein kinase 1 (CK1); assay: Protein kinase assay, casein kinase 1; format: biochemical; details: 15 µM ATP, 30 °C, triplicates
Experimental: (§1) Evaluation of the protein kinase inhibitory activity was performed in vitro as previously described. Briefly, homogenization buffer: 60 mM β-glycerophosphate, 15 mM p-nitrophenylphosphate, 25 mM Mops (pH 7.2), 15 mM EGTA, 15 mM MgCl2, 1 mM dithiothreitol, 1 mM sodium vanadate, 1 mM NaF, 1 mM phenylphosphate, 10 µg leupeptin mL^−1, 10 µg aprotinin mL^−1, 10 µg soybean trypsin inhibitor mL^−1, and 100 µg benzamidine. Buffer A: 10 mM MgCl2, 1 mM EGTA, 1 mM dithiothreitol, 25 mM Tris-HCl pH 7.5, 50 µg heparin mL^−1. Buffer C: homogenization buffer but 5 mM EGTA, no NaF and no protease inhibitors. Kinase activities were assayed in triplicates in buffer A or C at 30 °C, at a final ATP concentration of 15 µM. The order of mixing the reagents was: buffers, substrate, enzyme, inhibitor and ^33P-radiolabelled ATP. Isolated compounds were tested against a panel of eight kinases; namely cyclin-dependent kinase 1 (CDK1/cyclin B), cyclin-dependent kinase 2 (CDK2/cyclin A), cyclin-dependent kinase 5 (CDK5/p25), cyclin-dependent kinase 9 (CDK9/cyclin T), casein kinase 1 (CK1), Cdc2-like kinase 1 (CLK1), dual-specificity tyrosine-(Y)-phosphorylation regulated kinase 1A (DYRK1A) and glycogen synthase kinase-3α/β (GSK-3α/β).

[2] = target: CDK9/cyclin T (Homo sapiens, UniProt P50750); assay: Protein kinase assay, CDK9/cyclin T; format: biochemical; details: 15 µM ATP, 30 °C, triplicates
Experimental: as §1

[3] = target: CDK5/p25 (Homo sapiens, UniProt Q00535); assay: Protein kinase assay, CDK5/p25; format: biochemical; details: 15 µM ATP, 30 °C, triplicates
Experimental: as §1

[4] = target: glycogen synthase kinase-3α/β (GSK-3α/β); assay: Protein kinase assay, GSK-3α/β; format: biochemical; details: 15 µM ATP, 30 °C, triplicates, read-out: GSK3 IC50
Experimental: as §1

[5] = target: CDK1/cyclin B; assay: Protein kinase assay, CDK1/cyclin B; format: biochemical; details: 15 µM ATP, 30 °C, triplicates
Experimental: as §1

[6] = target: CDK2/cyclin A (Homo sapiens, UniProt P24941); assay: Protein kinase assay, CDK2/cyclin A; format: biochemical; details: 15 µM ATP, 30 °C, triplicates
Experimental: as §1

[7] = system: topoisomerase II; design: method as in PMID 7473578; details: catalytic DNA unwinding and decatenation assays, KSDS assay; cited from earlier work
[8] = system: Staphylococcus aureus ATCC 6538; assay: Antibacterial assay, growth inhibition in liquid culture; format: cell-based; details: ATCC6538, S. aureus ATCC 6538, OD 620 nm after 16 to 18 h, read-out: antibacterial activity IC50 against Staphylococcus aureus
Experimental: The antibacterial activity assay was conducted on the bacterial strain Gram-positive Staphylococcus aureus ATCC 6538 and Gram-negative Escherichia coli ATCC 8739 evaluated in vitro by determining the IC50. A pre-culture of 5 mL LB (Luria Bertoni) medium was prepared by inoculating a colony of the bacterial strain and was incubated at 37 °C with stirring overnight. The concentration of the pre-culture was assessed by measuring the optical density OD at 620 nm and adjusted by dilution to obtain a suspension of 0.03 OD. The […] was determined by a liquid test in 96-well-plates. A quantity of 200 µL of the bacterial suspension was distributed in each well and 10 µL of the extracts, fractions or pure compounds solutions in DMSO (10, 5 and 2 mg/mL, respectively) were added in triplicate. The 96 well-plates were incubated at 30 °C for 16 to 18 h with shaking (450 rpm). The optical density of the wells was measured at 620 nm and the results were interpreted by calculating the percentage of growth inhibition in each well using the formula: % inhibition = 100 − (DOS − DOB)/(DOT − DOB) ×100 where T = bacterial suspension without test sample, B = culture medium without bacteria and S = bacterial suspension test sample. Ampicillin and chloramphenicol were used as positive control against S. aureus and E. coli, respectively.

[9] = target: DYRK1A (Rattus norvegicus, UniProt Q63470); assay: Protein kinase assay, DYRK1A; format: biochemical
Experimental: as §1

[10] = target: yeast farnesyltransferase; design: method as in PMID 20634081; details: read-out: IC50 against yeast farnesyltransferase; cited from earlier work
[11] = target: human farnesyltransferase; design: method as in PMID 20634081; details: read-out: IC50 against human farnesyltransferase; cited from earlier work

CDK5/p25, sequence (Q00535 whole entry, species assumed): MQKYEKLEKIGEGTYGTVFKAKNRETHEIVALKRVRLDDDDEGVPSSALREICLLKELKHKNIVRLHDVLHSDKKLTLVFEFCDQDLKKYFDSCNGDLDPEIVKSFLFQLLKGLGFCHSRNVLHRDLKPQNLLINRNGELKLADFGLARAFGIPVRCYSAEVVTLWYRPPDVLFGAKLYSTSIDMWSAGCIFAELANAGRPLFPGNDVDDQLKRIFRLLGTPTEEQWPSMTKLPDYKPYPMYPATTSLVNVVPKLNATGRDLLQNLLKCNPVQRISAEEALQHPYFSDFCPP
CDK5/p25, sequence (Q15078 99-307 partner limits assumed, species assumed): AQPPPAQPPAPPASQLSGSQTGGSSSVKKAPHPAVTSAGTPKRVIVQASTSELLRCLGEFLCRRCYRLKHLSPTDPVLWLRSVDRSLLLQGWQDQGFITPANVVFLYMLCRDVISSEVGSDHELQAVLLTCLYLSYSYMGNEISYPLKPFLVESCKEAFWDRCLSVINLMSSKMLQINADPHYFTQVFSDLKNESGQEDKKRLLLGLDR
CDK9/cyclin T, sequence (P50750 whole entry, species assumed): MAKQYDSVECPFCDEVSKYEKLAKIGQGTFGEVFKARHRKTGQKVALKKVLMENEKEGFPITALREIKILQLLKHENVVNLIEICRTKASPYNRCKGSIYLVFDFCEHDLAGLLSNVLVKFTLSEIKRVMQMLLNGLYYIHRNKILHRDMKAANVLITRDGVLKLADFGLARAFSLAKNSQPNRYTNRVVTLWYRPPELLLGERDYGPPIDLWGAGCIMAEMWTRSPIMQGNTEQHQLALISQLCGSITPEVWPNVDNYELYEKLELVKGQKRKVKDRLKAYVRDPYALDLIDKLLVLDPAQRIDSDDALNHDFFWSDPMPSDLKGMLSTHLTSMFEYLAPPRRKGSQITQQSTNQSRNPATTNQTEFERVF
CDK9/cyclin T, sequence (O60563 whole entry partner, species assumed): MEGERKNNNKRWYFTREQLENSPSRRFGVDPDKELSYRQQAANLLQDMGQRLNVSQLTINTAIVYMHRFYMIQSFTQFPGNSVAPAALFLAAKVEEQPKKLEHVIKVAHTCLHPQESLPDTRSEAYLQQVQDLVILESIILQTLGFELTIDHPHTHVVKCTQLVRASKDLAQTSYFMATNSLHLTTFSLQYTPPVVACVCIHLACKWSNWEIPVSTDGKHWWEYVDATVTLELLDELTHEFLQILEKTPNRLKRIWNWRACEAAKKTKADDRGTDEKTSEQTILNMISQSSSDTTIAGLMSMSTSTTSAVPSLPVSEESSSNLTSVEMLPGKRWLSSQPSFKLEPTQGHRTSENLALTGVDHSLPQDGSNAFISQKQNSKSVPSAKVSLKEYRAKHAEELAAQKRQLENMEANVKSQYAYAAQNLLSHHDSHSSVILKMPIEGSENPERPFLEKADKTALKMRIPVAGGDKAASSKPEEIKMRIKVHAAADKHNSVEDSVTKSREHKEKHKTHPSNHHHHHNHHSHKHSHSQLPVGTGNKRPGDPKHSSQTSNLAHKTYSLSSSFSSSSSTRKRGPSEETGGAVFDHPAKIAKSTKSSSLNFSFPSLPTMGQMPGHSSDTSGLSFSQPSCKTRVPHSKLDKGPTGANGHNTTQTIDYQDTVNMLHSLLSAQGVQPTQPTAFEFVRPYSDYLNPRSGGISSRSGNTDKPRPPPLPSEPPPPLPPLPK

IC50 [8] | Compound | IC50 [1] | IC50 [2] | IC50 [3] | IC50 [4] | IC50 [5] | IC50 [6] | inhibition of topoisomerase II (in words) [7] | activity against DYRK1A (in words) [9] | IC50 [10] | IC50 [11]
 | C[C@@]12CCCc3coc(c31)C(=O)c1cc3c(cc12)C(=O)C1=C(NCCS1(=O)=O)C3=O [Compound 6, adociaquinone B] | > 10 µM | 3 µM | > 10 µM | > 10 µM | > 10 µM | > 10 µM | inhibition of topoisomerase II |  |  | 
 | C[C@@]12CCCc3coc(c31)C(=O)c1cc3c(cc12)C(=O)C=C(NCCS(=O)(=O)O)C3=O [Compound 8, secoadociaquinone B] | > 10 µM | > 10 µM | 6 µM | > 10 µM | > 10 µM | > 10 µM |  |  |  | 
125 µM | C[C@@]12CCCc3coc(c31)C(=O)c1cc3c(O)ccc(OS(=O)(=O)O)c3cc12 [Compound 11, xestoquinol sulfate] |  |  |  |  |  |  |  |  |  | 
 | C[C@@]12CCC(=O)c3coc(c31)C(=O)c1cc3c(O)ccc(OS(=O)(=O)O)c3cc12 [Compound 12] | 5.2 µM | 0.5 µM | 2.2 µM | 0.61 µM | 4.3 µM | 7.5 µM |  |  |  | 
 | CO[C@]12OC(O)C3=C1[C@@](C)(CCC3=O)c1cc3c(OS(=O)(=O)O)ccc(O)c3cc1C2=O (stereo partly drawn) [Compound 13] | > 10 µM | > 10 µM | > 10 µM | > 10 µM | > 10 µM | > 10 µM |  | marginal activity |  | 
 | CC1=CCCC2(C)C1=C(O)C(=O)c1cc3c(cc12)C(=O)C=CC3=O (stereo not drawn) [Orhalquinone] |  |  |  |  |  |  |  |  | 0.4 µM | 0.4 µM
 | adociaquinone A [Compound 5] |  |  |  |  |  |  | inhibition of topoisomerase II |  |  | 

— paper PMC4446597, “Novel Adociaquinone Derivatives from the Indonesian Sponge Xestospongia sp” (Marine Drugs, 2015)
